The subject of experiment [1] is MOLT-4. Put plainly: Cell viability assay (MTS) in MOLT-4 cells. The settings on record: Homo sapiens, MOLT-4. It counts as cell-based. As to the method: (§1) Acute lymphoblastic leukemia cells (MOLT-4 and RS4; 11) were incubated with increasing concentrations of Bcl-xL degraders for 48 h. Cell viability was measured by tetrazolium-based MTS assay.
The test system of experiment [2] is RS4; 11. Description: Cell viability assay (MTS) in RS4; 11 cells. The class given is cell-based. The following applies: Homo sapiens, RS4-11. Here is the method:
as §1

[3] abbreviates: Table 2, 48 hr, MTS, read-out: Anti-Cancer Activity IC50 (48 hr) MOLT-4.
[4] abbreviates: Table 2, 48 hr, MTS, read-out: Anti-Cancer Activity IC50 (48 hr) RS4, 11.
Setting [5] is: Table 4, 48 h, read-out: MOLT-4 48 h IC50.
Where [6] appears, read: Table 4, 48 h, read-out: RS4 48 h IC50.

SMILES strings stand for the structures. Like-named read-outs stand apart in the source and are kept apart here.

Consider `Cc1ncsc1-c1ccc([C@H](C)NC(=O)[C@@H]2C[C@@H](O)CN2C(=O)[C@@H](NC(=O)CCCCCCC(=O)N2CCN(C[C@]3(C)CCC(c4ccc(Cl)cc4)=C(CN4CCN(c5ccc(C(=O)NS(=O)(=O)c6ccc(N[C@H](CCN7CCCCCC7)CSc7ccccc7)c([N+](=O)[O-])c6)cc5)CC4)C3)CC2)C(C)(C)C)cc1` [Compound 56], for which the IC50 in experiment [1] (setting [3]) and in experiment [2] (setting [4]) was under 20 nM each time.
On to `Cc1ncsc1-c1ccc([C@H](C)NC(=O)[C@@H]2C[C@@H](O)CN2C(=O)[C@@H](NC(=O)CCCCCCC(=O)N2CCN(C[C@]3(C)CCC(c4ccc(Cl)cc4)=C(CN4CCN(c5ccc(C(=O)NS(=O)(=O)c6ccc(N[C@H](CCN7CCc8cccnc8C7)CSc7ccccc7)c([N+](=O)[O-])c6)cc5)CC4)C3)CC2)C(C)(C)C)cc1` [Compound 57, (2S,4R)-1-((S)-2-(8-(4-(((R)-4′-chloro-6-((4-(4-(((4-(((R)-4-(5,8-dihydro-1,7-naphthyridin-7(6H)-yl)-1-(phenylthio)butan-2-yl)amino)-3-nitrophenyl)sulfonyl)carbamoyl)phenyl)piperazin-1-yl)methyl)-4-methyl-2,3,4,5-tetrahydro-[1,1′-biphenyl]-4-yl)methyl)piperazin-1-yl)-8-oxooctanamido)-3,3-dimethylbutanoyl)-4-hydroxy-N—((S)-1-(4-(4-methylthiazol-5-yl)phenyl)ethyl)pyrrolidine-2-carboxamide], for which the IC50 (commonly the midpoint of a concentration-inhibition curve) in experiment [1] (setting [3]) was 100 to 500 nM; in experiment [2] (setting [4]), 20 to 100 nM.
The matching figures for `Cc1ncsc1-c1ccc([C@H](C)NC(=O)[C@@H]2C[C@@H](O)CN2C(=O)[C@@H](NC(=O)CCCCCCC(=O)N2CCN(C[C@]3(C)CCC(c4ccc(Cl)cc4)=C(CN4CCN(c5ccc(C(=O)NS(=O)(=O)c6ccc(N[C@H](CCN7CCCCC7)CSc7ccccc7)c(S(=O)(=O)C(F)(F)F)c6)cc5)CC4)C3)CC2)C(C)(C)C)cc1` [Compound 58, (2S,4R)-1-((S)-2-(8-(4-(((R)-4′-chloro-4-methyl-6-((4-(4-(((4-(((R)-1-(phenylthio)-4-(piperidin-1-yl)butan-2-yl)amino)-3-((trifluoromethyl)sulfonyl)phenyl)sulfonyl)carbamoyl)phenyl)piperazin-1-yl)methyl)-2,3,4,5-tetrahydro-[1,1′-biphenyl]-4-yl)methyl)piperazin-1-yl)-8-oxooctanamido)-3,3-dimethylbutanoyl)-4-hydroxy-N—((S)-1-(4-(4-methylthiazol-5-yl)phenyl)ethyl)pyrrolidine-2-carboxamide]: under 20 nM and under 20 nM.
As to `Cc1ncsc1-c1ccc([C@H](C)NC(=O)[C@@H]2C[C@@H](O)CN2C(=O)[C@@H](NC(=O)CCCCCCC(=O)N2CCN(C[C@]3(C)CCC(c4ccc(Cl)cc4)=C(CN4CCN(c5ccc(C(=O)NS(=O)(=O)c6ccc(N[C@H](CCN7CCCOCC7)CSc7ccccc7)c(S(=O)(=O)C(F)(F)F)c6)cc5)CC4)C3)CC2)C(C)(C)C)cc1` [Compound 59, (2S,4R)-1-((S)-2-(8-(4-(((R)-6-((4-(4-(((4-(((R)-4-(1,4-oxazepan-4-yl)-1-(phenylthio)butan-2-yl)amino)-3-((trifluoromethyl)sulfonyl)phenyl)sulfonyl)carbamoyl)phenyl)piperazin-1-yl)methyl)-4′-chloro-4-methyl-2,3,4,5-tetrahydro-[1,1′-biphenyl]-4-yl)methyl)piperazin-1-yl)-8-oxooctanamido)-3,3-dimethylbutanoyl)-4-hydroxy-N—((S)-1-(4-(4-methylthiazol-5-yl)phenyl)ethyl)pyrrolidine-2-carboxamide], the IC50 in experiment [1] (setting [3]) is under 20 nM; in experiment [1] (setting [5]) it was 0.7 nM; in experiment [2] (setting [4]), under 20 nM; in experiment [2] (setting [6]), 1.6 nM.
Regarding `Cc1ncsc1-c1ccc([C@H](C)NC(=O)[C@@H]2C[C@@H](O)CN2C(=O)[C@@H](NC(=O)CCCCCCC(=O)N2CCN(C[C@]3(C)CCC(c4ccc(Cl)cc4)=C(CN4CCN(c5ccc(C(=O)NS(=O)(=O)c6ccc(N[C@H](CCN7CCCCCC7)CSc7ccccc7)c(S(=O)(=O)C(F)(F)F)c6)cc5)CC4)C3)CC2)C(C)(C)C)cc1` [Compound 60, (2S,4R)-1-((S)-2-(8-(4-(((R)-6-((4-(4-(((4-(((R)-4-(azepan-1-yl)-1-(phenylthio)butan-2-yl)amino)-3-((trifluoromethyl)sulfonyl)phenyl)sulfonyl)carbamoyl)phenyl)piperazin-1-yl)methyl)-4′-chloro-4-methyl-2,3,4,5-tetrahydro-[1,1′-biphenyl]-4-yl)methyl)piperazin-1-yl)-8-oxooctanamido)-3,3-dimethylbutanoyl)-4-hydroxy-N—((S)-1-(4-(4-methylthiazol-5-yl)phenyl)ethyl)pyrrolidine-2-carboxamide], the IC50 in experiment [1] (setting [3]) and in experiment [2] (setting [4]) was under 20 nM throughout.
As to `Cc1ncsc1-c1ccc([C@H](C)NC(=O)[C@@H]2C[C@@H](O)CN2C(=O)[C@@H](NC(=O)CCCCCCC(=O)N2CCN(CC3(C)CCC(c4ccc(Cl)cc4)=C(CN4CCN(c5ccc(C(=O)NS(=O)(=O)c6ccc(N[C@H](CCN(C)C)CSc7ccccc7)c(S(=O)(=O)C(F)(F)F)c6)cc5)CC4)C3)CC2)C(C)(C)C)cc1` (stereo partly shown) [Compound 61], the IC50 in experiment [1] (setting [3]) and in experiment [2] (setting [4]) was under 20 nM in each case.
In the case of `CCN(CCO)CC[C@H](CSc1ccccc1)Nc1ccc(S(=O)(=O)NC(=O)c2ccc(N3CCN(CC4=C(c5ccc(Cl)cc5)CCC(C)(CN5CCN(C(=O)CCCCCCC(=O)N[C@H](C(=O)N6C[C@H](O)C[C@H]6C(=O)N[C@@H](C)c6ccc(-c7scnc7C)cc6)C(C)(C)C)CC5)C4)CC3)cc2)cc1S(=O)(=O)C(F)(F)F` (stereo partly drawn) [Compound 63, (2S,4R)-1-((2S)-2-(8-(4-((4′-chloro-6-((4-(4-(((4-(((R)-4-(ethyl(2-hydroxyethyl)amino)-1-(phenylthio)butan-2-yl)amino)-3-((trifluoromethyl)sulfonyl)phenyl)sulfonyl)carbamoyl)phenyl)piperazin-1-yl)methyl)-4-methyl-2,3,4,5-tetrahydro-[1,1′-biphenyl]-4-yl)methyl)piperazin-1-yl)-8-oxooctanamido)-3,3-dimethylbutanoyl)-4-hydroxy-N—((S)-1-(4-(4-methylthiazol-5-yl)phenyl)ethyl)pyrrolidine-2-carboxamide], the concentration for half-maximal inhibition (IC50) in experiment [1] (setting [3]) was 20 to 100 nM; in experiment [2] (setting [4]), under 20 nM.
In the case of `Cc1ncsc1-c1ccc([C@H](C)NC(=O)[C@@H]2C[C@@H](O)CN2C(=O)[C@@H](NC(=O)CCCCCCC(=O)N2CCN(C[C@]3(C)CCC(c4ccc(Cl)cc4)=C(CN4CCN(c5ccc(C(=O)NS(=O)(=O)c6ccc(N[C@H](CCN7CC8CCC7C8)CSc7ccccc7)c(S(=O)(=O)C(F)(F)F)c6)cc5)CC4)C3)CC2)C(C)(C)C)cc1` (stereo partly shown) [Compound 67], the concentration for half-maximal inhibition (IC50) in experiment [1] (setting [3]) and in experiment [2] (setting [4]) was under 20 nM in each case.
As to `Cc1ncsc1-c1ccc([C@H](C)NC(=O)[C@@H]2C[C@@H](O)CN2C(=O)[C@@H](NC(=O)CCCCCCC(=O)N2CCC(C3CCN(CC4(C)CCC(c5ccc(Cl)cc5)=C(CN5CCN(c6ccc(C(=O)NS(=O)(=O)c7ccc(N[C@H](CCN8C[C@H]9C[C@@H]8CO9)CSc8ccccc8)c(S(=O)(=O)C(F)(F)F)c7)cc6)CC5)C4)CC3)CC2)C(C)(C)C)cc1` (stereo partly shown) [Compound 70], the 50% inhibitory concentration (IC50) in experiment [1] (setting [3]) and in experiment [2] (setting [4]) was under 20 nM each time.
For `Cc1ncsc1-c1ccc([C@H](C)NC(=O)[C@@H]2C[C@@H](O)CN2C(=O)[C@@H](NC(=O)CCCCCCC(=O)N2CCN(C[C@]3(C)CCC(c4ccc(Cl)cc4)=C(CN4CCN(c5ccc(C(=O)NS(=O)(=O)c6ccc(N[C@H](CCN7CCc8cccnc8C7)CSc7ccccc7)c(S(=O)(=O)C(F)(F)F)c6)cc5)CC4)C3)CC2)C(C)(C)C)cc1` [Compound 71], the IC50 lay in the range of 100 to 500 nM in experiment [1] (setting [3]) and 20 to 100 nM in experiment [2] (setting [4]).
In the case of `Cc1ncsc1-c1ccc([C@H](C)NC(=O)[C@@H]2C[C@@H](O)CN2C(=O)[C@@H](NC(=O)CCCCCNC(=O)c2ccc(N3CCN(C[C@]4(C)CCC(c5ccc(Cl)cc5)=C(CN5CCN(c6ccc(C(=O)NS(=O)(=O)c7ccc(N[C@H](CCN8C[C@H]9C[C@@H]8CO9)CSc8ccccc8)c(S(=O)(=O)C(F)(F)F)c7)cc6)CC5)C4)CC3)nc2)C(C)(C)C)cc1` [Compound 72], the IC50 in experiment [1] (setting [3]) was under 20 nM; in experiment [1] (setting [5]) it was 4.4 nM; in experiment [2] (setting [4]), under 20 nM; in experiment [2] (setting [6]), 7 nM.
On to `Cc1ncsc1-c1ccc([C@H](C)NC(=O)[C@@H]2C[C@@H](O)CN2C(=O)[C@@H](NC(=O)CCCCCCNC(=O)c2ccc(N3CCN(C[C@]4(C)CCC(c5ccc(Cl)cc5)=C(CN5CCN(c6ccc(C(=O)NS(=O)(=O)c7ccc(N[C@H](CCN8C[C@H]9C[C@@H]8CO9)CSc8ccccc8)c(S(=O)(=O)C(F)(F)F)c7)cc6)CC5)C4)CC3)nc2)C(C)(C)C)cc1` [Compound 73], for which the IC50 in experiment [1] (setting [3]) was under 20 nM; in experiment [1] (setting [5]), 7.1 nM; in experiment [2] (setting [4]), under 20 nM; in experiment [2] (setting [6]), 13.9 nM.
Consider `Cc1ncsc1-c1ccc([C@H](C)NC(=O)[C@@H]2C[C@@H](O)CN2C(=O)[C@@H](NC(=O)CCCCCCCNC(=O)c2ccc(N3CCN(C[C@]4(C)CCC(c5ccc(Cl)cc5)=C(CN5CCN(c6ccc(C(=O)NS(=O)(=O)c7ccc(N[C@H](CCN8C[C@H]9C[C@@H]8CO9)CSc8ccccc8)c(S(=O)(=O)C(F)(F)F)c7)cc6)CC5)C4)CC3)nc2)C(C)(C)C)cc1` [Compound 74], for which the IC50 in experiment [1] (setting [3]) was under 20 nM; in experiment [2] (setting [4]) it was 20 to 100 nM.
The corresponding values for `Cc1ncsc1-c1ccc([C@H](C)NC(=O)[C@@H]2C[C@@H](O)CN2C(=O)[C@@H](NC(=O)CC2CCN(CC(=O)N3CCN(C[C@]4(C)CCC(c5ccc(Cl)cc5)=C(CN5CCN(c6ccc(C(=O)NS(=O)(=O)c7ccc(N[C@H](CCN8CCCOCC8)CSc8ccccc8)c(S(=O)(=O)C(F)(F)F)c7)cc6)CC5)C4)CC3)CC2)C(C)(C)C)cc1` [Compound 75] are 20 to 100 nM and 20 to 100 nM.

The values are drawn from US20250154141A1 (University of Florida Research Foundation, Incorporated, priority 2021, published 2025).
